How the values were obtained:
ERα = ERα (Homo sapiens (Human), UniProt P03372); experiment: Degradation of ERα in MCF-7 cells (ELISA); type: cell-based; design: Dmax: dose or concentration left out as unconfirmed; details: for Dmax at 3 µM: MCF7, read-out: Emax degradation (%); for DC50: MCF-7 cells, 16 to 18 h, read-out: EC50 (nM), degradation of ERα
Experimental: ERα-positive breast cancer cell line MCF-7 cells were cultured in a DMEM/F12 medium (HyClone, SH30023.01) containing 10% fetal bovine serum (Corning, 35-010-CV). […] The following day the compounds were serially diluted with DMSO and further diluted with the phenol red-free DMEM/F12 medium containing 5% charcoal-stripped fetal bovine serum. 20 μL of a diluted compound was added to each well of the 48-well plate at final concentrations of 3000, 300, 30, 3, 0.3, 0.03 and 0.003 nM. The 48-well plate was placed in the incubator for 16 to 18 h. A 96-well plate was coated with the capture antibody from the human ERα/NR3A1 total protein assay kit (R&D, DYC5715-5). […] The plate was placed in an incubator at 26° C. overnight. On day 3, the antibody-coated 96-well plate was washed once with PBS, and 200 μL of PBS containing 1% BSA was added to each well. The plate was incubated in an incubator at 37° C. for 1.5 h to be blocked. The cell culture medium supernatant was discarded. The cells were washed once with PBS, and 60 μL of a cell lysis buffer was added to each well. […] The cells were lysed on ice for 15 min, and 300 μL of PBS containing 1 mM EDTA and 0.5% TritonX-100 was added to each well to dilute the urea to 1 M. The blocking buffer in the blocked 96-well plate was discarded, and 100 μL of diluted cell lysis buffer was added to each well. The plate was incubated in an incubator at 37° C. for 2 h and washed 5 times with PBS. A biotinylated assay antibody was diluted to 0.4 μg/mL with PBS containing 1% BSA, and then 100 μL of the assay antibody was added to each well. The plate was incubated in an incubator at 37° C. for 1 h. The plate was then washed five more times, and 100 μL of avidin-HRP diluted 200-fold with PBS containing 1% BSA was added to each well. The plate was incubated at 37° C. for 30 min. The plate was washed five more times, and 100 μL of TMB substrate was added to each well. The plate was incubated at room temperature until blue color appeared, and 100 μL of stop solution was added to each well. OD450 signal values were read using a PHERAstar multi-mode microplate reader. The IC50 values for the inhibitory activity of the compounds were calculated using Graphpad Prism software.

MCF-7 cells = experiment: Inhibition of proliferation of MCF-7 cells (ATP method, Cell Titer-Glo); type: cell-based; details: Homo sapiens, MCF7; MCF-7 cells, 72 h
Experimental: This experiment was intended to test the inhibitory effects of the compounds disclosed herein on the proliferation of MCF-7 Cells by using the ATP method, and to evaluate the in vitro activity of the compounds according to the IC50 values.
MCF-7 cells (TCHu74, National Collection of Authenticated Cell Cultures) were seeded into a 96-well plate with an MEM (hyclone, SH30024.01B) medium containing 10% FBS (Gibco, 10099-141), 1% sodium pyruvate (sigma, 58636) and 1% non-essential amino acid (sigma, M7145) at a density of 4,000 cells/well and cultured at 37° C. with 5% CO2. 20 mM stock solutions of the compounds are prepared, serially diluted with 100% DMSO to a final concentration of 1000×, and then diluted 20-fold with a medium containing 2% FBS. After the cells were cultured for 24 h, the medium was removed. 90 μL of the medium containing 2% FBS and 10 μL of a drug were added to each well, and 10 μL of DMSO was added to the control group. The mixtures were well mixed by gentle shaking. The blank group contained only 100 μL of the medium containing 2% FBS. The cells were cultured in an incubator at 37° C. with 5% CO2 for 72 h, and then 50 μL of mixed Cell Titer-Glo (Promega, G7571) was added to each well. The mixtures were well mixed by shaking and let stand at room temperature for 10 min, and the chemiluminescence signal values were determined.
The chemiluminescence signal value was plotted against the compound concentration (in log form) using Graphpad Prism, and the IC50 values of the compounds were obtained.

CYP3A4 = CYP3A4 (Homo sapiens (Human), UniProt P08684); experiment: Inhibition of site of metabolism of midazolam in human liver microsome CYP3A4; type: in vitro ADME; details: midazolam substrate
Experimental: • 1. Phosphate buffer (20×PBS, purchased from Sangon); • 2. NADPH (ACROS, A2646-71-1); • 3. Human liver microsome (Corning Gentest, Cat No, 452161, Lot No. 9050002, Donor, 36); • 4. ABI QTrap 4000 LC-MS System (AB Sciex); • 5. ZORBAX Extend-C18, 3×50 mm, 3.5 μm (Agilent, USA); • 6. CYP probe substrate (midazolam, TRC, M343000/3 μM) and positive control inhibitor (ketoconazole, SIGMA, Cat No. K1003-100MG).
A 100 mM PBS buffer was prepared. A 0.25 mg/mL microsome solution, a 7.5 mM MgCl2 and a 5 mM NADPH solution were prepared using the buffer. A 30 mM stock solution was diluted with DMSO to obtain 30 mM, 10 mM, 3 mM, 1 mM, 0.3 mM, 0.03 mM, 0.003 mM and 0 mM serial solutions I, which were further diluted 200-fold with phosphate buffer (PBS) to obtain serial test solutions II (150, 50, 15, 5, 1.5, 0.15, 0.015 and 0 μM). A midazolam working solution was diluted with PBS to 15 μM.
40 μL of a 0.25 mg/mL microsome solution prepared in 7.5 mM MgCl2 and 20 μL of each of the 15 μM midazolam working solution and the compound working solutions (150, 50, 15, 5, 1.5, 0.15, 0.015 and 0 μM) were measured out and well mixed. Ketoconazole at the same concentration was used in place of the compounds as a positive control group. The mixtures were pre-incubated with 5 mM NADPH solution at 37° C. for 5 min at the same time. After 5 minutes, 20 μL of NADPH was added to each well to start reactions. The mixtures were incubated for 30 min. Duplicate samples were set for all of the incubated samples. After 30 minutes, 250 μL of internal standard-containing acetonitrile was added to all the samples. The mixtures were well mixed, shaken at 800 rpm for 10 min, and then centrifuged at 3700 rpm for 10 min. 100 μL of the supernatant and 80 μL of ultrapure water were well mixed and subjected to LC-MS/MS analysis.
The IC50 values of the drugs for the site of metabolism of midazolam in CYP3A4 were calculated using Graphpad Prism and are shown in Table 5.

ERα, sequence (P03372 whole entry): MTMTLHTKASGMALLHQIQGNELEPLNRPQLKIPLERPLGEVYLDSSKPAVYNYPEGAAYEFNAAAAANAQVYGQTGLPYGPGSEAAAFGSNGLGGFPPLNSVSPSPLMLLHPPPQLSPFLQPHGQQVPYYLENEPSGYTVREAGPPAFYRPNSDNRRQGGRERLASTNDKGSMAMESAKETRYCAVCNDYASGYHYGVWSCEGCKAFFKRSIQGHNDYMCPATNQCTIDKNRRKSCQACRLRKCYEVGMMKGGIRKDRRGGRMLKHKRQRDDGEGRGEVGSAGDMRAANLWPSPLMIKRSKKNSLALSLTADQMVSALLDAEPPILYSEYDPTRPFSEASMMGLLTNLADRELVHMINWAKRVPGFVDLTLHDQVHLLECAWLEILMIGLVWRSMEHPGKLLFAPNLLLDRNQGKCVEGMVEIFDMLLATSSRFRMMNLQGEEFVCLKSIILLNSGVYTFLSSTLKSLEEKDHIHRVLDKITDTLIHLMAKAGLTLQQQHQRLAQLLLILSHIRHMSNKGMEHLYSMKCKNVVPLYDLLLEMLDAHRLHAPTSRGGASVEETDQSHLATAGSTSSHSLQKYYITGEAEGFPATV
CYP3A4, sequence (P08684 whole entry): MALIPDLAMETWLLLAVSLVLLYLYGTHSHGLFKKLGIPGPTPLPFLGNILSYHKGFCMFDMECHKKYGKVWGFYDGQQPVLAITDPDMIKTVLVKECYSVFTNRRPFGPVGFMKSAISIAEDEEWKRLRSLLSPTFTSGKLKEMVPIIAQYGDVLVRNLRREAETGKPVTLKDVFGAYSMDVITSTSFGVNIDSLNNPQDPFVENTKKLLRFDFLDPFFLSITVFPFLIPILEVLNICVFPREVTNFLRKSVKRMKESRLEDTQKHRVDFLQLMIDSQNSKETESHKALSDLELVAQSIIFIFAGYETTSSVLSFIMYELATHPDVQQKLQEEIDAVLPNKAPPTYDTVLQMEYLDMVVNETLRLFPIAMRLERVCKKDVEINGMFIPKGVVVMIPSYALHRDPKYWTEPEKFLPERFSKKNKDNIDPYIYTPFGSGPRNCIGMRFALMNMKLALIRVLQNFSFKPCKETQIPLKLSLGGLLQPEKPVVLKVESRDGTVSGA

| Dmax at 3 µM (ERα) | DC50 (ERα) | IC50 (MCF-7 cells) | IC50 (CYP3A4) | SMILES | Dmax (ERα; MCF7, read-out: Emax degradation (%)) |
| --- | --- | --- | --- | --- | --- |
| 94% | 0.32 nM | 0.31 nM | 15.8 µM | C[C@@H]1Cc2cc3c(cc2[C@@H](c2ccc(N[C@H]4CCN(CCCF)C4)cc2)N1CC(F)(F)F)OCO3 [Example 1, (S)-1-(3-fluoropropyl)-N-(4-((5R,7R)-7-methyl-6-(2,2,2-trifluoroethyl)-5,6,7,8-tetrahydro-[1,3]dioxolo[4,5-g]isoquinolin-5-yl)phenyl)pyrrolidin-3-amine] | – |
| 115% | 0.21 nM | 0.28 nM | – | C[C@@H]1Cc2cc3c(cc2[C@@H](c2ccc(N[C@H]4CCN(CCCF)C4)cn2)N1CC(F)(F)CO)OCO3 [Example 4, 2,2-Difluoro-3-((5S,7R)-5-(5-(((S)-1-(3-fluoropropyl)pyrrolidin-3-yl)amino)pyridin-2-yl)-7-methyl-7,8-dihydro-[1,3]dioxolo[4,5-g]isoquinolin-6(5H)-yl)propan-1-ol] | – |
| 104% | 0.17 nM | 0.34 nM | – | C[C@@H]1Cc2cc3c(cc2[C@@H](c2ccc(N[C@H]4CCN(CCCF)C4)cn2)N1CC(F)(F)F)OCO3 [Example 6, N—((S)-1-(3-fluoropropyl)pyrrolidin-3-yl)-6-((5S,7R)-7-methyl-6-(2,2,2-trifluoroethyl)-5,6,7,8-tetrahydro-[1,3]dioxolo[4,5-g]isoquinolin-5-yl)pyridin-3-amine] | – |
| 107% | 1.04 nM | 0.35 nM | – | C[C@@H]1Cc2cc3c(cc2[C@@H](c2ncc(N[C@H]4CCN(CCCF)C4)cc2F)N1CC(F)(F)F)OCO3 [Example 9, 5-Fluoro-N—((S)-1-(3-fluoropropyl)pyrrolidin-3-yl)-6-((5S,7R)-7-methyl-6-(2,2,2-trifluoroethyl)-5,6,7,8-tetrahydro-[1,3]dioxolo[4,5-g]isoquinolin-5-yl)pyridin-3-amine] | – |
| 104% | 1.24 nM | 0.44 nM | – | C[C@@H]1Cc2cc3c(cc2[C@@H](c2ccc(NC4CN(CCCF)C4)cn2)N1CC(F)(F)F)OCO3 [Example 17, N-(1-(3-fluoropropyl)azetidin-3-yl)-6-((5S,7R)-7-methyl-6-(2,2,2-trifluoroethyl)-5,6,7,8-tetrahydro-[1,3]dioxolo[4,5-g]isoquinolin-5-yl)pyridin-3-amine] | – |

The remaining lines, values behind:

| SMILES | Dmax at 3 µM (ERα) | DC50 (ERα) | IC50 (MCF-7 cells) | IC50 (CYP3A4) | Dmax (ERα; MCF7, read-out: Emax degradation (%)) |
| --- | --- | --- | --- | --- | --- |
| C[C@@H]1Cc2cc3c(cc2[C@@H](c2c(F)cc(N[C@H]4CCN(CCCF)C4)cc2F)N1CC(F)(F)CO)OCO3 [Example 5, 3-((5S,7R)-5-(2,6-difluoro-4-(((S)-1-(3-fluoropropyl)pyrrolidin-3-yl)amino)phenyl)-7-methyl-7,8-dihydro-[1,3]dioxolo[4,5-g]isoquinolin-6(5H)-yl)-2,2-difluoro-1-propanol] | 108% | 0.04 nM | 0.03 nM | – | – |
| C[C@@H]1Cc2cc3c(cc2[C@@H](c2ncc(N[C@H]4CCN(CCCF)C4)cc2F)N1CC(F)(F)CO)OCO3 [Example 11, 2,2-Difluoro-3-((5S,7R)-5-(3-fluoro-5-(((S)-1-(3-fluoropropyl)pyrrolidin-3-yl)amino)pyridin-2-yl)-7-methyl-7,8-dihydro-[1,3]dioxolo[4,5-g]isoquinolin-6(5H)-yl)propan-1-ol] | 91% | 0.45 nM | 0.23 nM | – | – |
| [2H]C1([2H])Oc2cc3c(cc2O1)[C@@H](c1ccc(NC2CN(CCCF)C2)cn1)N(CC(F)(F)CO)[C@H](C)C3 [Example 13, 2,2-Difluoro-3-((5S,7R)-5-(5-((1-(3-fluoropropyl)azetidin-3-yl)amino)pyridin-2-yl)-7-methyl-7,8-dihydro-[1,3]dioxolo[4,5-g]isoquinolin-6(5H)-yl-2,2-d2)propan-1-ol] | – | – | 0.29 nM | – | 107% |
| C[C@@H]1Cc2cc3c(cc2[C@@H](c2ccc(NC4CN(CCCF)C4)cn2)N1CC(F)(F)CO)OCO3 [Example 14, 2,2-Difluoro-3-((5S,7R)-5-(5-((1-(3-fluoropropyl)azetidin-3-yl)amino)pyridin-2-yl)-7-methyl-7,8-dihydro-[1,3]dioxolo[4,5-g]isoquinolin-6(5H)-yl)propan-1-ol] | 92% | 0.5 nM | 0.36 nM | – | – |
| C[C@@H]1Cc2cc3c(cc2[C@@H](c2c(F)cc(O[C@H]4CCN(CCCF)C4)cc2F)N1CC(F)(F)F)OCO3 [Example 15, (5S,7R)-5-(2,6-difluoro-4-(((S)-1-(3-fluoropropyl)pyrrolidin-3-yl)oxy)phenyl)-7-methyl-6-(2,2,2-trifluoroethyl)-5,6,7,8-tetrahydro-[1,3]dioxolo[4,5-g]isoquinoline] | 95% | 0.15 nM | 0.3 nM | – | – |
| C[C@@H]1Cc2cc3c(cc2[C@@H](c2ccc(NC4CN(CCCF)C4)cc2)N1CC(F)(F)CO)OCO3 [Example 18, 2,2-Difluoro-3-((5R,7R)-5-(4-((1-(3-fluoropropyl)azetidin-3-yl)amino)phenyl)-7-methyl-7,8-dihydro-[1,3]dioxolo[4,5-g]isoquinolin-6(5H)-yl)propan-1-ol] | 106% | 0.1 nM | 0.07 nM | – | – |
| [2H]C1([2H])Oc2cc3c(cc2O1)[C@@H](c1ccc(N[C@H]2CCN(CCCF)C2)cc1)N(CC(F)(F)CO)[C@H](C)C3 [Example 19, 2,2-Difluoro-3-((5R,7R)-5-(4-(((S)-1-(3-fluoropropyl)pyrrolidin-3-yl)amino)phenyl)-7-methyl-7,8-dihydro-[1,3]dioxolo[4,5-g]isoquinolin-6(5H)-yl-2,2-d2)propan-1-ol] | 100% | 0.13 nM | 0.07 nM | – | – |

Reference: patent US12428428B2, “Tricyclic tetrahydroisoquinoline derivative, preparation method therefor and application thereof in medicine” (JIANGSU HENGRUI MEDICINE CO., LTD., priority 2020, dated 2025)
